The values below come from patent US6444662B1 (Willmar Schwabe GmbH & Co., priority 1998, dated 2002).

Structures are written as SMILES.

In one data set the target is recombinant PKC-γ (Homo sapiens, UniProt P05129). Kind of data set: Activation of protein kinase PKC-γ (enzyme test). In kind it is biochemical. The following applies: control with 100 nM TPA set to 100%. The procedure:
PKCγ activators are potentially suitable for activating cc-secretase. These activators are found in enzyme tests in which the recombinantly produced PKC-γ is suboptimally active. The test media were:
In the table, the control with 100 nM phorbol-12-myristate-13-acetate (TPA; stimulator of PKC-γ) was set to 100%.

Data set [1] is described as follows: Stability of hyperforin salts on storage at room temperature (content by HPLC). The format is physicochemical. To be noted: for Change in the hyperforin content, difference after 1 week / Change in the hyperforin content, difference after 4 weeks / Change in the hyperforin content, difference after 12 weeks: room temperature, brown-glass bottles, without protective gas; for Change in the hyperforin content, difference after 1 week / Change in the hyperforin content, difference after 4 weeks / Change in the hyperforin content, difference after 12 weeks / Initial value, hyperforin content (% of the stoichiometric content): HPLC; for Initial value, hyperforin content (% of the stoichiometric content): hyperforin (examples 1 to 20) or hyperforin+adhyperforin (examples 21 to 31). The procedure:
General: Melting points were measured with Elektrothermal® or B-545 (Büchi) apparatus; IR spectra were recorded with an IFS 28 (Bruker) IR-spectrometer on KBr blanks, NMR spectra with an AC 200 or Avance 200 (Bruker) in D4-methanol (200 MHz for ^1H and 50 MHz for ^13C; δ-values in ppm). HPLC determinations were performed using a Dynamax PDA-1 from Rainin, Voburn, Mass., USA. HPLC conditions (isocratic): adsorbant: Eurospher 100-C18, 10 μm. Eluant: Acetonitrile/water/phosphoric acid=85/15/0.3 (vol./vol.). Detection: 273 nm. […] Assay: Content stated in area-% with reference to the reference standard. […] Operating conditions: under red light or in darkened apparatus under protective gas (nitrogen or argon). […] They are calculated as hydrates. Abbreviations: MTBE=Methyl tert.-butyl ether. “98H/I”=n-heptane/isopropanol 98/2 (vol/vol). Mp.=melting point. anh.=anhydrous. Th=theoretical. sv=very strong.
1 This salt is used as the reference standard.

The subject of another data set is α-secretase. Kind of data set: Activation of α-secretase in secα1-transfected cells (Seap release). The format is cell-based, human. The following applies: 60 min incubation, mean of triplicates. The source says:
As the APP cassette in both constructs begins with amino-acid 7 of the β-amyloid sequence, the recognition sequence for β-secretase in the sec-fusion proteins is absent. Cleavage by γ-secretase has not been described for human APLP-2, with the result that the specificity of the fusion proteins for α-secretase only is achieved by substitution of the trans-membrane domain of APLP-2 for APP. The expression plasmid secα1 was stably transfected into human neuronal cells SY5Y. Activation of α-secretase in these secα1-transfected cells is manifested in an increased release of Seap into the cell medium. The quantity of Seap is determined, and serves as a measure of the α-secretase activity.
Test conditions: 80 000 FL-2a cells/well. V=100 μl. Incubation time: 60 min.
Concentration of the substances: 10 μg/ml.
Mean values±s.d. of triplicates.
The activation of α-secretase by the phorbol ester TPA (100 ng/ml) was measured as the positive control.

As to `CC(C)=CCC[C@]1(C)[C@@H](CC=C(C)C)C[C@@]2(CC=C(C)C)C(=O)[C@]1(C(=O)C(C)C)C(=O)C(CC=C(C)C)=C2O.[Na]` [Example 1, Hyperforin Sodium Salt], the results for the “Increase in the activity of PKC-γ” value on recombinant PKC-γ (substance dose 1 μg/ml), at recombinant PKC-γ (substance dose 3 μg/ml) and at recombinant PKC-γ (substance dose 10 μg/ml) were 9%, 30% and 56%, respectively.

Regarding `CC(C)=CCCC1(C)C(CC=C(C)C)CC2(CC=C(C)C)C(=O)C1(C(=O)C(C)C)C(=O)C(CC=C(C)C)=C2O.NCCCNC1CCCCC1` (centres unmarked) [Example 15], in data set [1], the “Change in the hyperforin content, difference after 1 week” value (from here on “Change … difference after 1 week”) is listed as −2.0%; the “Change in the hyperforin content, difference after 4 weeks” value (“Change … difference after 4 weeks” for short) is listed as −2.0%; the “Change in the hyperforin content, difference after 12 weeks” value (“Change … difference after 12 weeks” below) is on record as −9.9%. In addition, the “Initial value, hyperforin content (% of the stoichiometric content)” value in data set [1] (storage time 0) came to 90.8%.

Consider `CC(C)=CCC[C@]1(C)[C@@H](CC=C(C)C)C[C@@]2(CC=C(C)C)C(=O)[C@]1(C(=O)C(C)C)C(=O)C(CC=C(C)C)=C2O` [Hyperforin, hyperforin, reference compound], for which the “Activity of α-secretase (secreted alkaline phosphatase, Seap)” value with α-secretase (10 μg/ml, 80 000 cells/well) was 441 RLU. The “Increase in the activity of PKC-γ” value at recombinant PKC-γ (substance dose 1 μg/ml) is on record as 6%; on recombinant PKC-γ (substance dose 3 μg/ml) it was 51%; on recombinant PKC-γ (substance dose 10 μg/ml), 45%.

`C1CCC(NC2CCCCC2)CC1.CC(C)=CCC[C@]1(C)C(CC=C(C)C)C[C@@]2(CC=C(C)C)C(=O)[C@]1(C(=O)C(C)C)C(=O)C(CC=C(C)C)=C2O` (some centres unmarked) [Example 2, N,N-Dicyclohexylamine Salt of Hyperforin]: in data set [1] (storage time 0, perchloric-acid titration), the “Initial value, hyperforin content (titr.)” value came out at 100%.

For `CC(C)=CCC[C@]1(C)C(CC=C(C)C)C[C@@]2(CC=C(C)C)C(=O)[C@]1(C(=O)C(C)C)C(=O)C(CC=C(C)C)=C2O.COc1cc(CN)cc(OC)c1OC` (some centres unmarked) [Example 3, 3,4,5-Trimethoxybenzylamine Salt of Hyperforin], in data set [1], the “Change … difference after 1 week” value is “+1.1%”; the “Change … difference after 4 weeks” value was −1.1%; the “Change … difference after 12 weeks” value is recorded as −5.0%. For the same molecule, the “Initial value, hyperforin content (% of the stoichiometric content)” value in data set [1] (storage time 0) is listed as 87.2%.

Turning to `C1CCNC1.CC(C)=CCC[C@]1(C)C(CC=C(C)C)C[C@@]2(CC=C(C)C)C(=O)[C@]1(C(=O)C(C)C)C(=O)C(CC=C(C)C)=C2O` (some centres unmarked) [Example 5, Pyrrolidine Salt of Hyperforin], the results for the “Increase in the activity of PKC-γ” value on recombinant PKC-γ (substance dose 1 μg/ml), at recombinant PKC-γ (substance dose 3 μg/ml) and at recombinant PKC-γ (substance dose 10 μg/ml) were 3%, 20% and 48%, respectively. In addition, in data set [1], the “Change … difference after 1 week” value is on record as −0.5%. Further, the “Change … difference after 12 weeks” value in data set [1] is −3.2%. In addition, the “Initial value, hyperforin content (% of the stoichiometric content)” value in data set [1] (storage time 0) came out at 93.7%.

In the case of `CCCCCCCCCCCCCC(=O)O[C@@H]1[C@@H](C)[C@@]2(O)[C@@H](C=C(CO)C[C@]3(O)C(=O)C(C)=C[C@@H]23)[C@@H]2C(C)(C)[C@]12OC(C)=O` [TPA, phorbol-12-myristate-13-acetate], the “Activity of α-secretase (secreted alkaline phosphatase, Seap)” value in the data set on α-secretase (positive control, 100 ng/ml) came out at 386 RLU.

Take `CC(C)=CCC[C@]1(C)C(CC=C(C)C)C[C@@]2(CC=C(C)C)C(=O)[C@]1(C(=O)C(C)C)C(=O)C(CC=C(C)C)=C2O.Nc1ccncc1` (some centres unmarked) [Example 16]: in data set [1], the “Change … difference after 1 week” value is “+1.4%” and the “Change … difference after 4 weeks” value is “+0.1%”. In addition, the “Initial value, hyperforin content (% of the stoichiometric content)” value in data set [1] (storage time 0) stood at 94.6%.
